Measurements taken from patent US20250032788A1, “COMPOSITIONS AND METHODS FOR TREATING WITH A COMBINATION OF ALTERNATING ELECTRIC FIELDS AND DNA-DEPENDENT PROTEIN KINASE INHIBITORS” (NOVOCURE GMBH, priority 2023, published 2025).
“Also recorded” adds a separate entry of the source.

Tests used:
Type in all cases: cell-based
A549 cells [1] = assay: Inhibitor titration, cell count by flow cytometer, A549; settings: 72 hr, no TTFields
Method: (§1) This work was began with the titration of nedisertib. For these experiments 15,000 of A549 or H1299 cells/dish were seeded in 12-well plate and incubated overnight to allow cell attachment. The cells were then treated with various concentrations of nedisertib for 72 hr. The remaining cells were counted by flow cytometer (Guava easyCyte HT) (FIG. 11). […] For these experiments 15,000 of A549 or H1299 cells/dish were seeded in 12-well plates and incubated overnight to allow cell attachment. […] The remaining cells were counted by flow cytometer (Guava easy Cyte HT).

H1299 cells [2] = assay: Inhibitor titration, cell count by flow cytometer, H1299; settings: 72 hr, no TTFields
Method: as §1

A549 cells [3] = assay: Concomitant TTFields and inhibitor: cell count, colony formation, annexin V/7AAD apoptosis, A549; settings: for interaction of co-application of TTFields and inhibitor: summary statement
Method: In these experiments 15,000 of A549 cells/dish were seeded in inovitro dishes and incubated overnight to allow cell attachment. The cells were then treated with TTFields (0.97V/cm RMS, 150 kHz, 72 h), alone or with the addition of different concentrations of nedisertib, Efficacy was measured by analyzing cell count by flow cytometer (Guava easy Cyte HT), colony formation, and apoptosis induction by annexin V/7AAD staining. The overall effect was calculated by multiplying cell count with colony formation.
In these experiments 15,000 of A549 cells/dish were seeded in inovitro dishes and incubated overnight to allow cell attachment. […] Efficacy was measured by analyzing cell count by flow cytometer (Guava easy Cyte HT), colony formation, and apoptosis induction by annexin V/7AAD staining. The overall effect was calculated by multiplying cell count with colony formation.

H1299 cells [4] = assay: Concomitant TTFields and inhibitor: cell count, colony formation, annexin V/7AAD apoptosis, H1299; settings: TTFields 0.97 V/cm RMS, 150 kHz, 72 h
Method: In these experiments 15,000 of H1299 cells/dish were seeded in inovitro dishes and incubated overnight to allow cell attachment. The cells were then treated with TTFields (0.97 V/cm RMS, 150 KHz, 72 h), alone or with the addition of different concentrations of nedisertib. Efficacy was measured by analyzing cell count by flow cytometer (Guava easy Cyte HT), colony formation, and apoptosis induction by annexin V/7AAD staining. The overall effect was calculated by multiplying cell count with colony formation.
In these experiments 15,000 of H1299 cells/dish were seeded in inovitro dishes and incubated overnight to allow cell attachment. […] Efficacy was measured by analyzing cell count by flow cytometer (Guava easy Cyte HT), colony formation, and apoptosis induction by annexin V/7AAD staining. The overall effect was calculated by multiplying cell count with colony formation.

A549 cells [5] = assay: Cell cycle distribution by flow cytometer, A549; settings: for change in the sub G1 phase / cell cycle distribution, concomitant treatment with TTFields: 150 kHz; for cell cycle distribution, concomitant treatment with TTFields: different times
Method: The mechanism of action of the concomitant treatment was investigated and cell cycle analysis was performed. In these experiments 15,000 of A549 cells/dish were seeded in inovitro dishes and incubated overnight to allow cell attachment. The cells were then treated with TTFields (0.97 V/cm RMS. 150 kHz) for different times, alone or with the addition of 6 μM of nedisertib (FIG. 14). Cell cycle distribution was performed for each treatment alone and for the concomitant treatments using the Cytek® Northern Lights™ flow cytometer.
In these experiments, 15,000 of A549 cells/dish were seeded in inovitro dishes and incubated overnight to allow cell attachment. […] Cell cycle distribution was performed for each treatment alone and for the concomitant treatments using the Cytek® Northern Lights™ flow cytometer.

H1299 cells [6] = assay: Cell cycle distribution by flow cytometer, H1299; settings: 150 kHz, different times
Method: Similar results to the A549 cells were obtained in the H1299 cell line, where the concomitant treatment results in G1 arrest (FIG. 15). In these experiments 15,000 of H1299 cells/dish were seeded in inovitro dishes and incubated overnight to allow cell attachment. The cells were then treated with TTFields (0.97 V/cm RMS. 150 kHz) for different times, alone or with the addition of 6.25 μM of nedisertib. Cell cycle distribution was performed for each treatment alone and for the concomitant treatments using the Cytek® Northern Lights™ flow cytometer.
Similar results were obtained in the H1299 cell line, where the concomitant treatment results in G1 arrest (FIG. 20). In these experiments 15,000 of H1299 cells/dish were seeded in inovitro dishes and incubated overnight to allow cell attachment. […] Cell cycle distribution was performed for each treatment alone and for the concomitant treatments using the Cytek® Northern Lights™ flow cytometer.

DNA-PK = target: T1, DNA-PK (Homo sapiens, UniProt P78527); assay: Western blot of DNA-PK autophosphorylation (pS2056) after radiation in primary glioma stem-like cells; settings: VX984 250 nM, radiation 5 Gy, CX18 edge 2, CX18 core 1, OX5 edge and OX5 core
T1 construct: primary glioma stem-like cells (GSCs) treated with DNA-PKi or IR alone or in combination; endogenous in cells; host or cells: CX18 core 1 / edge 2 and OX5 core / edge primary glioma stem-like cells

[7] = tested on: CX18 edge 2, CX18 core 1, OX5 edge and OX5 core primary glioblastoma cells; assay: Clonogenic survival assay with TTFields, VX984 and radiation in 3D Alvetex culture; settings: VX984 250 nM, 1 hr pre-treatment, TTFields 200 kHz, 72 hr, radiation, n=3
Method: Clonogenic survival assays of cells pre-treated with VX984 (250 nM, 1 hr) before TTFields incubation (200 kHz, 72 hr) in CX18 edge 2, CX18 core 1, OX5 edge and OX5 core cells. n=3, statistical significance denoted through ANOVA one-way analysis. Representative images of cell death post TTFields treatment in CX18 edge 2), CX18 core 2, OX5 edge and OX5 core cells.
FIG. 6 is a table with a summary of the survival data of TTFields alongside VX984 and radiation. The average intratumoural survival fractions (INTRA); OX5 core vs edge and CX18 core vs edge and the average intertumoural survival fraction; OX5 INTRA vs CX18 INTRA are shown. Bliss indices are calculated to ascertain if cell death is synergistic or addictive using the survival fraction product of DMSO+TTF and Combo−TTF as a ratio against Combo+TTF. Ratios<1.1 are seen as additive cell death whereas>1.1 is synergistic.

[8] = TTFields 0.97 V/cm RMS, 150 kHz, 72 h, different concentrations
[9] = 0.11 μM CC-115, TTFields 0.97 V/cm RMS
[10] = 6 μM nedisertib, TTFields 0.97 V/cm RMS

## CCN1C(=O)CNc2ncc(-c3ccc(-c4nc[nH]n4)nc3C)nc21 [CC-115]
A549 cells [1]
  IC50 (remaining cells counted): much lower than that of nedisertib
H1299 cells [2]
  IC50 (remaining cells counted): much lower than that of nedisertib; also recorded: higher than that of A549
A549 cells [3]; 0.11 μM CC-115
  levels of apoptosis at the concentration used for cell cycle analysis: low levels of apoptosis
A549 cells [3]; [8]
  overall effect (cell count multiplied by colony formation) of inhibitor with TTFields: synergistically enhanced; also recorded: enhance
A549 cells [3]
  interaction of co-application of TTFields and inhibitor: synergistic interaction
H1299 cells [4]; different concentrations
  overall effect (cell count multiplied by colony formation) of inhibitor with TTFields: additive overall effect; also recorded: enhance
A549 cells [5]; [9]
  change in the sub G1 phase: don't see a significant change
  cell cycle distribution, concomitant treatment with TTFields: induced G1 arrest and a decreased number of s-phase cells; also recorded: promotes cell cycle arrest
H1299 cells [6]; 0.3125 μM CC-115, TTFields 0.97 V/cm RMS
  cell cycle distribution, concomitant treatment with TTFields: G1 arrest; also recorded: promotes cell cycle arrest

## COc1ccc([C@@H](O)c2cc(-c3ncnc4cc(N5CCOCC5)ccc34)c(F)cc2Cl)nn1 [Nedisertib]
H1299 cells [2]
  IC50 (remaining cells counted): higher than that of A549
A549 cells [3]; 6 μM nedisertib
  levels of apoptosis at the concentration used for cell cycle analysis: low levels of apoptosis
A549 cells [3]; TTFields 0.97 V/cm RMS, 150 kHz, 72 h
  apoptotic effect of the concomitant treatment (annexin V/7AAD): only significant in the higher doses
A549 cells [3]; [8]
  cytotoxic effect (cell count) of inhibitor with TTFields: synergistically enhanced; also recorded: enhance
  overall effect (cell count multiplied by colony formation) of inhibitor with TTFields: synergistically enhanced; also recorded: enhance
A549 cells [3]
  interaction of co-application of TTFields and inhibitor: synergistic interaction
H1299 cells [4]
  apoptotic effect of the concomitant treatment (annexin V/7AAD): only significant in the higher doses
  interaction of concomitant treatment of TTFields and inhibitor: additive interaction
H1299 cells [4]; different concentrations
  cytotoxic effect (cell count) of inhibitor with TTFields: enhance
  overall effect (cell count multiplied by colony formation) of inhibitor with TTFields: enhance
H1299 cells [4]; listed as nedisertib
  interaction of concomitant treatment of TTFields and inhibitor: additive effect
A549 cells [5]; [10]
  change in the sub G1 phase: don't see a significant change
  cell cycle distribution, concomitant treatment with TTFields: highest level of arrest; also recorded: promotes cell cycle arrest
A549 cells [5]; 6 μM nedisertib, at most time points
  cell cycle distribution, inhibitor alone: induce G1 arrest and a decreased number of s-phase cells
H1299 cells [6]; 6.25 μM nedisertib, TTFields 0.97 V/cm RMS
  cell cycle distribution, concomitant treatment with TTFields: G1 arrest; also recorded: promotes cell cycle arrest

## VX984
DNA-PK
  pDNAPK (pS2056) signal in response to radiation: depletion of pDNAPK (pS2056) signal
[7]
  glioblastoma cell death (clonogenic survival): enhances glioblastoma cell death by radiosensitisation
